Data: patent publication US8632792B2, “Cooling sensation agent composition and sensory stimulation agent composition” (Takasago International Corporation, priority 2008, dated 2014)

Key:
[1] = test system: internal bronchia; experiment: Cooling towel (washing processed), organoleptic ranking of cooling action; type: in vivo; settings: for sum of the ranking numbers (cooling effect on treated hand towel after washing): 1% in base washing detergent, low sum = strong; for cooling action (in words), strength and durability: washing processed towel, comparison within the compound class
Description: (§1) Each of di-1-menthyl carbonate, di-1-isopulegol carbonate, 1-menthyl-1-menthoxy ethyl carbonate, 1-menthyl-1-isopulegol carbonate, 1-menthoxypropanediol benzaldehyde acetal, 1-menthoxypropanediol methylheptenone ketal, 1-menthoxypropanediol-1-citronellal acetal, menthyl palmitate, menthyl stearate, menthyl isostearate, 1-menthoxypropanediol, and an equivalent-weight mixture of 1-menthyl-menthoxy ethyl carbonate, menthoxypropanediol citronellal acetal and menthyl isostearate was compounded with a base washing detergent solution at a concentration of 1%.
(§2) A pure cotton hand towel (white plain towel made in Japan, 20 cm×20 cm, degrease-finished) was hand-washed for 3 minutes at a particular concentration (water: 10 L, detergent: 3 g, water temperature: 17° C.), then washed with the same amount of water for 2 minutes, squeezed lightly, and air-dried indoor for 6 hours. The hand towels prepared, the hand towels after 24 hours and the hand towels after 48 hours were brought into contact with the internal bronchia and the cooling action thereof was determined organoleptically. The determination was conducted as same as Example 1, that is, […] professional examiners are divided into three groups; different 5 kinds of samples were ranked from the strongest to weakest in action respectively by the examiners in three groups; and the result was shown by the sum of the ranking numbers.

[2] = test system: professional examiners; experiment: Cooling treated towel (direct spraying), organoleptic ranking of cooling action; type: in vivo; settings: for cooling action (in words), strength and consistency: comparison over 10 min to 24 hr, within the compound class
Description: 1% ethanol solution of each of di-1-menthyl carbonate, di-1-isopulegol carbonate, 1-menthyl-1-menthoxy ethyl carbonate, 1-menthyl-1-isopulegol carbonate, 1-menthoxypropanediol methylheptenone ketal, 1-menthoxypropanediol benzaldehyde acetal, 1-menthoxypropanediol-l-citronellal acetal, menthyl palmitate, menthyl stearate, menthyl isostearate, 1-menthol, and an equivalent-weight mixture of 1-menthyl-menthoxy ethyl carbonate, menthoxypropanediol citronellal acetal and menthyl isostearate was prepared. The solution was sprayed on a pure cotton hand towel (white plain towel made in Japan, 20 cm×20 cm, degrease-finished) in an amount of 1 g. After the towel was air-dried for 10 minutes, 3 hours, or 24 hours, the cooling action of each towel was determined organoleptically. Fifteen professional examiners with 5 years or more of experience are divided into three groups; different 5 kinds of samples were ranked from the strongest to weakest in action respectively by the examiners in three groups; and the result was shown by the sum of the ranking numbers.

[3] = Cooling towel (washing processed), organoleptic ranking of cooling action; type: in vivo; settings: after washing treatment and air drying for 6 hours
Description: as §1, §2

[4] = Group B, 24 hr (third time point)
[5] = Group B, air-dried 10 min, 1% ethanol solution, low sum = strong
[6] = Group B, air-dried 3 hr, 1% ethanol solution, low sum = strong
[7] = Group B, air-dried 24 hr, 1% ethanol solution, low sum = strong
[8] = Group A, air-dried 10 min, 1 g of 1% ethanol solution sprayed on cotton towel, ranked strongest to weakest (low sum = strong)
[9] = Group A, air-dried 3 hr, 1% ethanol solution, low sum = strong
[10] = Group A, air-dried 24 hr, 1% ethanol solution, low sum = strong
[11] = Group C, air-dried 10 min, 1% ethanol solution, low sum = strong
[12] = Group C, air-dried 3 hr, 1% ethanol solution, low sum = strong
[13] = Group C, air-dried 24 hr, 1% ethanol solution, low sum = strong

Q: With `CC(C)[C@@H]1CC[C@@H](C)C[C@H]1OCC1COC(c2ccccc2)O1` (some centres unmarked) [1-menthoxypropanediol benzaldehyde acetal] as the molecule, how does the “sum of the ranking numbers (cooling effect on treated hand towel after washing)” value ([1]; Group B, 6 hr) read?
A: 11

Q: What about the “sum of the ranking numbers (cooling effect on treated hand towel after washing)” value [1, 4] of the same molecule?
A: 11

Q: And the “sum of the ranking numbers (cooling effect on treated hand towel after washing)” value ([1]; Group B, 24 hr)?
A: 11

Q: What about the “sum of the ranking numbers (cooling effect on treated hand towel at direct spraying)” value [2, 5] of the same molecule?
A: 15

Q: What about the “sum of the ranking numbers (cooling effect on treated hand towel at direct spraying)” value [2, 6] of the same molecule?
A: 9

Q: And the “sum of the ranking numbers (cooling effect on treated hand towel at direct spraying)” value [2, 7]?
A: 9

Q: Which results are given for `CC(C)=CCCC1(C)OCC(CO[C@@H]2C[C@H](C)CC[C@H]2C(C)C)O1` (some centres unmarked) [1-menthoxypropanediol methylheptenone ketal]?
A: sum of the ranking numbers (cooling effect on treated hand towel after washing) ([1]; Group B, 6 hr): 10; sum of the ranking numbers (cooling effect on treated hand towel after washing) [1, 4]: 10; sum of the ranking numbers (cooling effect on treated hand towel after washing) ([1]; Group B, 24 hr): 11; sum of the ranking numbers (cooling effect on treated hand towel at direct spraying) [2, 5]: 13; sum of the ranking numbers (cooling effect on treated hand towel at direct spraying) [2, 6]: 6; sum of the ranking numbers (cooling effect on treated hand towel at direct spraying) [2, 7]: 6; cooling action (in words), strength and consistency ([2]; direct spraying): strongest in action

Q: With `CC1CCC(C(C)C)C(OCC(O)CO)C1` (centres unmarked) [1-menthoxypropanediol, reference compound] as the molecule, how does the “cooling action (in words)” value [3] read?
A: did not have cooling action

Q: With `CC(C)=CCC[C@H](C)CC1OCC(CO[C@@H]2C[C@H](C)CC[C@H]2C(C)C)O1` (some centres unmarked) [1-menthoxypropanediol-1-citronellal acetal] as the molecule, how does the “sum of the ranking numbers (cooling effect on treated hand towel after washing)” value ([1]; Group B, 6 hr) read?
A: 13

Q: And the “sum of the ranking numbers (cooling effect on treated hand towel after washing)” value [1, 4]?
A: 13

Q: And the “sum of the ranking numbers (cooling effect on treated hand towel after washing)” value ([1]; Group B, 24 hr)?
A: 13

Q: And the “sum of the ranking numbers (cooling effect on treated hand towel at direct spraying)” value [2, 5]?
A: 18

Q: What about the “sum of the ranking numbers (cooling effect on treated hand towel at direct spraying)” value [2, 6] of the same molecule?
A: 16

Q: And the “sum of the ranking numbers (cooling effect on treated hand towel at direct spraying)” value [2, 7]?
A: 16

Q: With `C=C(C)[C@@H]1CC[C@@H](C)C[C@H]1OC(=O)O[C@@H]1C[C@H](C)CC[C@H]1C(=C)C` [Di-l-isopulegol carbonate, di-1-isopulegol carbonate] as the molecule, how does the “sum of the ranking numbers (cooling effect on treated hand towel after washing)” value ([1]; Group A, 6 hr) read?
A: 14

Q: What about the “sum of the ranking numbers (cooling effect on treated hand towel after washing)” value ([1]; Group A, 24 hr) of the same molecule?
A: 13

Q: And the “sum of the ranking numbers (cooling effect on treated hand towel after washing)” value ([1]; Group A, 48 hr)?
A: 14

Q: What about the melting point of the same molecule?
A: 86 to 87 °C

Q: What about the “sum of the ranking numbers (cooling effect on treated hand towel at direct spraying)” value [2, 8] of the same molecule?
A: 17

Q: And the “sum of the ranking numbers (cooling effect on treated hand towel at direct spraying)” value [2, 9]?
A: 12

Q: And the “sum of the ranking numbers (cooling effect on treated hand towel at direct spraying)” value [2, 10]?
A: 11

Q: For `CC(C)[C@@H]1CC[C@@H](C)C[C@H]1OC(=O)O[C@@H]1C[C@H](C)CC[C@H]1C(C)C` [Di-l-menthyl carbonate, di-1-menthyl carbonate], which “sum of the ranking numbers (cooling effect on treated hand towel after washing)” value ([1]; Group A, 6 hr) is on record?
A: 16

Q: What about the “sum of the ranking numbers (cooling effect on treated hand towel after washing)” value ([1]; Group A, 24 hr) of the same molecule?
A: 18

Q: What about the “sum of the ranking numbers (cooling effect on treated hand towel after washing)” value ([1]; Group A, 48 hr) of the same molecule?
A: 18

Q: And the “sum of the ranking numbers (cooling effect on treated hand towel after washing)” value ([1]; Group B, 6 hr)?
A: 16

Q: What about the “sum of the ranking numbers (cooling effect on treated hand towel after washing)” value [1, 4] of the same molecule?
A: 16

Q: And the “sum of the ranking numbers (cooling effect on treated hand towel after washing)” value ([1]; Group B, 24 hr)?
A: 15

Q: What about the “sum of the ranking numbers (cooling effect on treated hand towel after washing)” value ([1]; Group C, 6 hr) of the same molecule?
A: 16

Q: And the “sum of the ranking numbers (cooling effect on treated hand towel after washing)” value ([1]; Group C, 24 hr)?
A: 21

Q: And the “sum of the ranking numbers (cooling effect on treated hand towel after washing)” value ([1]; Group C, 48 hr)?
A: 21

Q: What about the “cooling action (in words), strength and durability” value [1] of the same molecule?
A: weakest

Q: What about the “sum of the ranking numbers (cooling effect on treated hand towel at direct spraying)” value [2, 8] of the same molecule?
A: 24

Q: What about the “sum of the ranking numbers (cooling effect on treated hand towel at direct spraying)” value [2, 9] of the same molecule?
A: 21

Q: What about the “sum of the ranking numbers (cooling effect on treated hand towel at direct spraying)” value [2, 10] of the same molecule?
A: 20

Q: And the “sum of the ranking numbers (cooling effect on treated hand towel at direct spraying)” value [2, 5]?
A: 24

Q: And the “sum of the ranking numbers (cooling effect on treated hand towel at direct spraying)” value [2, 6]?
A: 19

Q: And the “sum of the ranking numbers (cooling effect on treated hand towel at direct spraying)” value [2, 7]?
A: 19

Q: And the “sum of the ranking numbers (cooling effect on treated hand towel at direct spraying)” value [2, 11]?
A: 17

Q: What about the “sum of the ranking numbers (cooling effect on treated hand towel at direct spraying)” value [2, 12] of the same molecule?
A: 21

Q: And the “sum of the ranking numbers (cooling effect on treated hand towel at direct spraying)” value [2, 13]?
A: 21

Q: Which “sum of the ranking numbers (cooling effect on treated hand towel after washing)” value ([1]; Group C, 6 hr) does the source give for `CCCCCCCCCCCCCCCC(=O)OC1CC(C)CCC1C(C)C` (centres unmarked) [Menthyl palmitate, menthyl palmitate] here?
A: 18

Q: And the “sum of the ranking numbers (cooling effect on treated hand towel after washing)” value ([1]; Group C, 24 hr)?
A: 16

Q: What about the “sum of the ranking numbers (cooling effect on treated hand towel after washing)” value ([1]; Group C, 48 hr) of the same molecule?
A: 17

Q: What about the “sum of the ranking numbers (cooling effect on treated hand towel at direct spraying)” value [2, 11] of the same molecule?
A: 15

Q: And the “sum of the ranking numbers (cooling effect on treated hand towel at direct spraying)” value [2, 12]?
A: 17

Q: And the “sum of the ranking numbers (cooling effect on treated hand towel at direct spraying)” value [2, 13]?
A: 17

Q: Which results are given for `CCCCCCCCCCCCCCCCCC(=O)OC1CC(C)CCC1C(C)C` (centres unmarked) [Menthyl stearate, menthyl stearate]?
A: sum of the ranking numbers (cooling effect on treated hand towel after washing) ([1]; Group C, 6 hr): 21; sum of the ranking numbers (cooling effect on treated hand towel after washing) ([1]; Group C, 24 hr): 18; sum of the ranking numbers (cooling effect on treated hand towel after washing) ([1]; Group C, 48 hr): 17; sum of the ranking numbers (cooling effect on treated hand towel at direct spraying) [2, 11]: 21; sum of the ranking numbers (cooling effect on treated hand towel at direct spraying) [2, 12]: 15; sum of the ranking numbers (cooling effect on treated hand towel at direct spraying) [2, 13]: 17

Q: For `CC(C)[C@@H]1CC[C@@H](C)C[C@H]1O` [l-Menthol, 1-menthol, reference compound], which “sum of the ranking numbers (cooling effect on treated hand towel after washing)” value ([1]; Group A, 6 hr) is on record?
A: 25

Q: And the “sum of the ranking numbers (cooling effect on treated hand towel after washing)” value ([1]; Group A, 24 hr)?
A: 25

Q: What about the “sum of the ranking numbers (cooling effect on treated hand towel after washing)” value ([1]; Group A, 48 hr) of the same molecule?
A: 25

Q: And the “sum of the ranking numbers (cooling effect on treated hand towel after washing)” value ([1]; Group B, 6 hr)?
A: 25

Q: And the “sum of the ranking numbers (cooling effect on treated hand towel after washing)” value [1, 4]?
A: 25

Q: And the “sum of the ranking numbers (cooling effect on treated hand towel after washing)” value ([1]; Group B, 24 hr)?
A: 25

Q: And the “sum of the ranking numbers (cooling effect on treated hand towel at direct spraying)” value [2, 8]?
A: 5

Q: What about the “sum of the ranking numbers (cooling effect on treated hand towel at direct spraying)” value [2, 9] of the same molecule?
A: 24

Q: What about the “sum of the ranking numbers (cooling effect on treated hand towel at direct spraying)” value [2, 10] of the same molecule?
A: 25

Q: And the “sum of the ranking numbers (cooling effect on treated hand towel at direct spraying)” value [2, 5]?
A: 5

Q: What about the “sum of the ranking numbers (cooling effect on treated hand towel at direct spraying)” value [2, 6] of the same molecule?
A: 25

Q: And the “sum of the ranking numbers (cooling effect on treated hand towel at direct spraying)” value [2, 7]?
A: 25

Q: And the “cooling action (in words)” value ([2]; direct spraying, after air drying for 10 minutes)?
A: strongest cooling action

Q: And the “cooling action (in words), strength and consistency” value ([2]; direct spraying)?
A: less consistent

Q: For `C=C(C)[C@@H]1CC[C@@H](C)C[C@H]1OC(=O)O[C@@H]1C[C@H](C)CC[C@H]1C(C)C` [l-Menthyl-l-isopulegol carbonate, 1-menthyl-1-isopulegol carbonate], which “sum of the ranking numbers (cooling effect on treated hand towel after washing)” value ([1]; Group A, 6 hr) is on record?
A: 12

Q: And the “sum of the ranking numbers (cooling effect on treated hand towel after washing)” value ([1]; Group A, 24 hr)?
A: 12

Q: What about the “sum of the ranking numbers (cooling effect on treated hand towel after washing)” value ([1]; Group A, 48 hr) of the same molecule?
A: 11

Q: What about the “sum of the ranking numbers (cooling effect on treated hand towel at direct spraying)” value [2, 8] of the same molecule?
A: 19

Q: And the “sum of the ranking numbers (cooling effect on treated hand towel at direct spraying)” value [2, 9]?
A: 1

Q: And the “sum of the ranking numbers (cooling effect on treated hand towel at direct spraying)” value [2, 10]?
A: 14

Q: Which results are given for `CC(C)[C@@H]1CC[C@@H](C)C[C@H]1OCCOC(=O)O[C@@H]1C[C@H](C)CC[C@H]1C(C)C` [l-Menthyl-l-menthoxy ethyl carbonate, 1-menthyl-1-menthoxy ethyl carbonate]?
A: sum of the ranking numbers (cooling effect on treated hand towel after washing) ([1]; Group A, 6 hr): 8; sum of the ranking numbers (cooling effect on treated hand towel after washing) ([1]; Group A, 24 hr): 7; sum of the ranking numbers (cooling effect on treated hand towel after washing) ([1]; Group A, 48 hr): 7; cooling action (in words), strength and durability [1]: strongest; sum of the ranking numbers (cooling effect on treated hand towel at direct spraying) [2, 8]: 10; sum of the ranking numbers (cooling effect on treated hand towel at direct spraying) [2, 9]: 5; sum of the ranking numbers (cooling effect on treated hand towel at direct spraying) [2, 10]: 5; cooling action (in words), strength and consistency ([2]; direct spraying): superior both in initial strength and consistency
